The test system of one series is MDR1 in LS174T cells. Briefly: MDR1 protein levels (western blot). Type of series: cell-based, human. Conditions: 10 μM SPA70, 1.6 μM RIF, 72 h. On the procedure:
(§1) Cells were rinsed once with cold PBS then lysed in RIPA lysis buffer (Thermo Fisher Scientific) containing protease inhibitor (Roche). Mouse liver samples were homogenized in 500 μl of cold RIPA lysis buffer in a Bullet Blender Blue homogenizer (Next Advance, Averill Park, NY). Then, 25 μg of total protein lysates were loaded onto NuPAGE 4%–12% Bis-Tris gels (Invitrogen) with NuPAGE MES SDS running buffer (Invitrogen). The proteins were transferred from the gel to a nitrocellulose membrane by using the iBlot gel-transfer system (Invitrogen). The membrane was then blocked for 1 h with Odyssey Blocking Buffer (LI-COR Biosciences, Lincoln, NE) and probed with mouse monoclonal antibodies against CYP3A4 (K03; stock concentration: 2.5 mg ml^−1, diluted 1:5000)[51], MDR1 (D-11; Cat. No. sc-55510, Santa Cruz Biotechnology, Santa Cruz, CA; stock concentration: 0.2 mg ml^−1, diluted 1:1500), hPXR (H-11; Cat. No. sc-48340, Santa Cruz Biotechnology; stock concentration: 0.2 mg ml^−1, diluted 1:400), mouse Cyp3a (Cat. No. MAB10041, Millipore, Temecula, CA; Lot No. 1957980, diluted 1:1000), or β-actin (Cat. No. A5441, Sigma; Lot No. 043M4840V, diluted 1:5000). […] The relative intensity of each protein band was then determined by normalizing the intensity of each protein band to that of actin. […]
(In general: In western blotting, separated proteins are transferred to a membrane and probed.)

The subject of the next series is MDR1 in LS180 cells. Description: MDR1 protein levels (western blot). It counts as cell-based, human. As to conditions: 10 μM SPA70, 1.6 μM RIF, 72 h. As for the experimental part:
as §1

Another series concerns the target T1, AMPK-alpha2 (Homo sapiens, UniProt P54646).
T1 construct: purchased DiscoverX (Ambit Biosciences) KINOMEscan
Briefly: KINOMEscan kinase profiling. Type of series: binding. Conditions: read-out: %Inhibition by 10 μM SPA70. The method, boiled down: (§2)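 KINOMEscan profiling followed a published protocol. Kinases whose inhibition exceeded a set cut-off were then tested in a dilution series beginning at 30 µM.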

Another series has as its target T2, CDKL1 (Homo sapiens, UniProt Q00532).
T2 construct: purchased DiscoverX (Ambit Biosciences) KINOMEscan
Briefly: KINOMEscan kinase profiling. As to conditions: read-out: %Inhibition by 10 μM SPA70. It counts as binding. A digest of the protocol: as §2

The next series concerns the target T3, CSK (Homo sapiens, UniProt P41240).
T3 construct: purchased DiscoverX (Ambit Biosciences) KINOMEscan
Briefly: KINOMEscan kinase profiling. Type of series: binding. The method, boiled down:
as §2

In another series the target is T4, CSNK2A2 (Homo sapiens, UniProt P19784).
T4 construct: purchased DiscoverX (Ambit Biosciences) KINOMEscan
Briefly: KINOMEscan kinase profiling. As to conditions: read-out: %Inhibition by 10 μM SPA70. It counts as binding. A digest of the protocol: as §2

The next series deals with T5, ERBB2 (Homo sapiens, UniProt P04626).
T5 construct: purchased DiscoverX (Ambit Biosciences) KINOMEscan
Description: KINOMEscan kinase profiling. It counts as binding. As to conditions: read-out: %Inhibition by 10 μM SPA70. A digest of the protocol:
as §2

The target of another series is T6, GSK3B (Homo sapiens, UniProt P49841).
T6 construct: purchased DiscoverX (Ambit Biosciences) KINOMEscan
Briefly: KINOMEscan kinase profiling. Type of series: binding. The method, boiled down: as §2

For the next series, the target named is T7, HIPK2 (Homo sapiens, UniProt Q9H2X6).
T7 construct: purchased DiscoverX (Ambit Biosciences) KINOMEscan
Briefly: KINOMEscan kinase profiling. As to conditions: read-out: %Inhibition by 10 μM SPA70. Type of series: binding. A digest of the protocol: as §2

Another series addresses T8, PCTK2 (Homo sapiens, UniProt Q00537).
T8 construct: purchased DiscoverX (Ambit Biosciences) KINOMEscan
Briefly: KINOMEscan kinase profiling. It counts as binding. Conditions: read-out: %Inhibition by 10 μM SPA70. The method, boiled down:
as §2

In another series the target is T9, PIK3CD (Homo sapiens, UniProt O00329).
T9 construct: purchased DiscoverX (Ambit Biosciences) KINOMEscan
Description: KINOMEscan kinase profiling. It counts as binding. As to conditions: read-out: %Inhibition by 10 μM SPA70. The method, boiled down:
as §2

In another series the target is T10, ROS1 (Homo sapiens, UniProt P08922).
T10 construct: purchased DiscoverX (Ambit Biosciences) KINOMEscan
Description: KINOMEscan kinase profiling. Type of series: binding. Conditions: read-out: %Inhibition by 10 μM SPA70. The method, boiled down: as §2

A further series deals with T11, TGFBR2 (Homo sapiens, UniProt P37173).
T11 construct: purchased DiscoverX (Ambit Biosciences) KINOMEscan
Briefly: KINOMEscan kinase profiling. Type of series: binding. Conditions: read-out: %Inhibition by 10 μM SPA70. The method, boiled down: as §2

In series [1] the target is T12, hPXR (Homo sapiens, UniProt O75469).
T12 sequence (O75469 1-434): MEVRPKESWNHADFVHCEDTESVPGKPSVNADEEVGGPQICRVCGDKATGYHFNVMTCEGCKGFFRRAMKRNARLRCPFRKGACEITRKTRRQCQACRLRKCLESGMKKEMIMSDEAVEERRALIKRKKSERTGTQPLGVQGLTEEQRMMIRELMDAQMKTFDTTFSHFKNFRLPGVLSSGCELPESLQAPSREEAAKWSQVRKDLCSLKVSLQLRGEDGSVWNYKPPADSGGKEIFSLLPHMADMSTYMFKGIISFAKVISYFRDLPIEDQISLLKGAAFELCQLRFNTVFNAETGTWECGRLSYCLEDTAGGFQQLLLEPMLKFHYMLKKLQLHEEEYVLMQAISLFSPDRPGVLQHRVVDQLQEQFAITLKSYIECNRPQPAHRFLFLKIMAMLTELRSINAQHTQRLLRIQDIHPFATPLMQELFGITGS
Description: hPXR transactivation assay using transient transfection in LS180 cells. Type of series: cell-based. Also noted: expressed in transfected cells. As to conditions: SPA70 10 μM, SJB7 4 μM. On the procedure:
The hPXR transactivation assay using transient transfection (agonist and antagonist modes) were performed as described previously. Briefly, LS180 cells were co-transfected with pGL3-CYP3A4-luc (CYP3A4-luciferase reporter) and pRL-TK (as a transfection control), together with pcDNA3, pcDNA3-hPXR, pcDNA3-hPXRM425A, or pcDNA3-hPXRF429A, by using FuGENE 6 (Roche). The pcDNA3-hPXR mutants (pcDNA3-hPXRM425A and pcDNA3-hPXRF429A) were obtained from Codex BioSolutions, Inc. (Gaithersburg, MD). Mutations were verified through nucleotide sequencing, using primers shown in Supplementary Table 3.

The subject of another series is LS180 cells (parental). Description: CellTiter-Glo cytotoxicity assay. Conditions: 10 µM SPA70. (Cellular ATP, detected with luciferase, serves as a proxy for viable cell number.)
The subject of series [2] is LS180 cells with stable exogenous expression of hPXR. Briefly: CellTiter-Glo cytotoxicity assay. Conditions: 10 µM SPA70.
The test system of the next series is SNU-C4 cells. Briefly: CellTiter-Glo cytotoxicity assay. Conditions: 10 µM SPA70.
Series [3] concerns the target T12, hPXR. Description: hPXR transactivation assay, HepG2 stable cell line, agonistic mode.

T6 sequence (P49841 whole entry): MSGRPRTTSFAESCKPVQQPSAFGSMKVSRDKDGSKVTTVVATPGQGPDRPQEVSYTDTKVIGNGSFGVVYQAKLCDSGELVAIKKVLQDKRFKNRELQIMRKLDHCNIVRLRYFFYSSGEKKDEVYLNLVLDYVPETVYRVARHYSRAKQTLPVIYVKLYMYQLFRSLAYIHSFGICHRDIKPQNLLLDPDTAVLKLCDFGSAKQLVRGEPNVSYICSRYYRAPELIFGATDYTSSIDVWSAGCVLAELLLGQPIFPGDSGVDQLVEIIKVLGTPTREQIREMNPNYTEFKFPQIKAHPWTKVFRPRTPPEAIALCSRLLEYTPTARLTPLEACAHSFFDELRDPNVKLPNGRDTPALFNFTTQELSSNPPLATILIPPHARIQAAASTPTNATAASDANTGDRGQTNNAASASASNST
T5 sequence (P04626 23-1255): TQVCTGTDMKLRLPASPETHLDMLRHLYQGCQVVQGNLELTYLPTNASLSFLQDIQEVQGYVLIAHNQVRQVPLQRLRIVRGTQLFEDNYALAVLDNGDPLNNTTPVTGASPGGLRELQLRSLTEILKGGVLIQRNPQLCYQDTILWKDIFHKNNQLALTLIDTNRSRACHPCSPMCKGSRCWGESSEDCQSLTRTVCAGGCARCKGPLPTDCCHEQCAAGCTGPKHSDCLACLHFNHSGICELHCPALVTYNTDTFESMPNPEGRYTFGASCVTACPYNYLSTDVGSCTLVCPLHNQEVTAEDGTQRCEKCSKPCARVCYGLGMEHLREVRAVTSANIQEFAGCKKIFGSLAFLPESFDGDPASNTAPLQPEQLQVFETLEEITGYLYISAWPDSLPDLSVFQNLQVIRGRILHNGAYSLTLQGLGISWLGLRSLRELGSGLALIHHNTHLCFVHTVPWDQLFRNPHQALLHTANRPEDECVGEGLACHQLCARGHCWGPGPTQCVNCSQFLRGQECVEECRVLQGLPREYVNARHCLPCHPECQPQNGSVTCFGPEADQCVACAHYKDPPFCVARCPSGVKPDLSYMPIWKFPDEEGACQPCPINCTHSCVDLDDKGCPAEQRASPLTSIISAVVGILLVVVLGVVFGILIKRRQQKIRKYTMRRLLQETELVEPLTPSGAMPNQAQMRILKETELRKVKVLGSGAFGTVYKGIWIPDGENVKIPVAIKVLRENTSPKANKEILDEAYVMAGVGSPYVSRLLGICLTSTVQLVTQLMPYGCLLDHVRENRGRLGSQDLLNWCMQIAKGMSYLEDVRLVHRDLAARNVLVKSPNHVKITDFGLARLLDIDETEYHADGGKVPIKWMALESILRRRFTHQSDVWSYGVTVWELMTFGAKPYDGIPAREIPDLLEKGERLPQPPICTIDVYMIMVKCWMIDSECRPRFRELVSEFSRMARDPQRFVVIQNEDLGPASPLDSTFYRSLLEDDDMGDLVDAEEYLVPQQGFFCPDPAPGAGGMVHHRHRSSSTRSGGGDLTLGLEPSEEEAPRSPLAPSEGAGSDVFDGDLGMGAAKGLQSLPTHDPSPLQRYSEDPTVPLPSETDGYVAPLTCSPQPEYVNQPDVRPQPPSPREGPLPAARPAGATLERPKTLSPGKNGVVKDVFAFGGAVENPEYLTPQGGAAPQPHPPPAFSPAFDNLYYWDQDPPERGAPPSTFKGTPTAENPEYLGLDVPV
T9 sequence (O00329 whole entry): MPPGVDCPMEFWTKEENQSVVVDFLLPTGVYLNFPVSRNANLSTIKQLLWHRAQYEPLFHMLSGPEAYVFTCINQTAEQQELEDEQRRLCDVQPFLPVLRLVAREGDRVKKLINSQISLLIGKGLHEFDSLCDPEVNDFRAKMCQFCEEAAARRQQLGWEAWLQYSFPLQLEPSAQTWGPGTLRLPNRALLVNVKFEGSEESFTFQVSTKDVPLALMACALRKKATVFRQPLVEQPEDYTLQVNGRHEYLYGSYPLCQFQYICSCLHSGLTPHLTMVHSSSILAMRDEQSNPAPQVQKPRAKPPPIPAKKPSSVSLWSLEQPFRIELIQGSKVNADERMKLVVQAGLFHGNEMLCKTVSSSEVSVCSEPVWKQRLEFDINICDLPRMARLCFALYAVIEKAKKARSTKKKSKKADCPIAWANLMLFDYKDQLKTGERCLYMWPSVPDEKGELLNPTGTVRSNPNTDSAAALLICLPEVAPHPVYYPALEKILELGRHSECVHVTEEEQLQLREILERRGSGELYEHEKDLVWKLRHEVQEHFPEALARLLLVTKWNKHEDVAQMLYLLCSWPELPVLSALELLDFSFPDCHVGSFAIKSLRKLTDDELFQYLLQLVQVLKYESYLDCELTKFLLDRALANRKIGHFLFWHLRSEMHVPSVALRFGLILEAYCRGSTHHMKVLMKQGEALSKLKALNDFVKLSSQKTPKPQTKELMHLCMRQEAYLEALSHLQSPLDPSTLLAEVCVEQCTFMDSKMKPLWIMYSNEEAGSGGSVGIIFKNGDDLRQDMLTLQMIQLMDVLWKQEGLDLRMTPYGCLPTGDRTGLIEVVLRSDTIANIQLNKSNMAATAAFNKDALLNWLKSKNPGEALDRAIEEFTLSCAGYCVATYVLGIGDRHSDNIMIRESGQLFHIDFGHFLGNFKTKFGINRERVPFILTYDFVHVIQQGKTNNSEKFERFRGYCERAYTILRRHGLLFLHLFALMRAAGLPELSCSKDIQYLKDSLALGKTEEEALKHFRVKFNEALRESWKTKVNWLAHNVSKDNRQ
T11 sequence (P37173 23-567): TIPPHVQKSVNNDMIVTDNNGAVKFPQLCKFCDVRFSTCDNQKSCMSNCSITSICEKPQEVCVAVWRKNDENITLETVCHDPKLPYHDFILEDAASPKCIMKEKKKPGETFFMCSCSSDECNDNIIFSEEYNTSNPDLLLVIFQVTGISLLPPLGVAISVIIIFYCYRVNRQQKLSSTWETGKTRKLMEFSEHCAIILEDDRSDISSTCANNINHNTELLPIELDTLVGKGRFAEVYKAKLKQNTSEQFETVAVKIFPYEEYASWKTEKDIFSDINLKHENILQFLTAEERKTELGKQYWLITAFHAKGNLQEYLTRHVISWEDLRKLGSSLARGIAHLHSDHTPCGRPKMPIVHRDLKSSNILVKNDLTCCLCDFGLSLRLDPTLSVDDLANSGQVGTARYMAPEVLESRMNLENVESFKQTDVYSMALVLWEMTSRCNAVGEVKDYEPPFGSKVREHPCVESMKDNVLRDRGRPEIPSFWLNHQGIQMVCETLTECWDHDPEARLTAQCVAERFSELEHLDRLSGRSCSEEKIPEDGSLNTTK
T4 sequence (P19784 whole entry): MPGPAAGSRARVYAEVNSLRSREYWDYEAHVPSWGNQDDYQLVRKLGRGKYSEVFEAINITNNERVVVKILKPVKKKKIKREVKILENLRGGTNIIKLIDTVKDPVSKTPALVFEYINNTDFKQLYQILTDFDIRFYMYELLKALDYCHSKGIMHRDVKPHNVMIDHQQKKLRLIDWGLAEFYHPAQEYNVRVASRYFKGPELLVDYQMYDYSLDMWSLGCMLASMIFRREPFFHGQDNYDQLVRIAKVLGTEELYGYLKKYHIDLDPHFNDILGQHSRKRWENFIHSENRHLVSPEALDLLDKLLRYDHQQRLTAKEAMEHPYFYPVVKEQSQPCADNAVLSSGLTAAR
T3 sequence (P41240 whole entry): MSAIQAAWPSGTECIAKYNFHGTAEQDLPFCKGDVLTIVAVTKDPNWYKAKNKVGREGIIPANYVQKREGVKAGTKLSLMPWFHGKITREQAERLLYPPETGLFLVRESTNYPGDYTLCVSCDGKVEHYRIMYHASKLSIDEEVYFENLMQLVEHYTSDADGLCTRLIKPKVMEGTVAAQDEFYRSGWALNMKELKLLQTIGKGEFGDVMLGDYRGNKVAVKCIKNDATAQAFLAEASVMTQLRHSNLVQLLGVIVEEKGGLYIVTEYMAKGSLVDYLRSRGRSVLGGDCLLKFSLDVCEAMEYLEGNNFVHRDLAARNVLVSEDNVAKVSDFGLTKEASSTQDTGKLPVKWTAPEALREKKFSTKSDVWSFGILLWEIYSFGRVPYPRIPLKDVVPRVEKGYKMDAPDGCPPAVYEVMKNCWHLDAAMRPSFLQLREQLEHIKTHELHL
T1 sequence (P54646 whole entry): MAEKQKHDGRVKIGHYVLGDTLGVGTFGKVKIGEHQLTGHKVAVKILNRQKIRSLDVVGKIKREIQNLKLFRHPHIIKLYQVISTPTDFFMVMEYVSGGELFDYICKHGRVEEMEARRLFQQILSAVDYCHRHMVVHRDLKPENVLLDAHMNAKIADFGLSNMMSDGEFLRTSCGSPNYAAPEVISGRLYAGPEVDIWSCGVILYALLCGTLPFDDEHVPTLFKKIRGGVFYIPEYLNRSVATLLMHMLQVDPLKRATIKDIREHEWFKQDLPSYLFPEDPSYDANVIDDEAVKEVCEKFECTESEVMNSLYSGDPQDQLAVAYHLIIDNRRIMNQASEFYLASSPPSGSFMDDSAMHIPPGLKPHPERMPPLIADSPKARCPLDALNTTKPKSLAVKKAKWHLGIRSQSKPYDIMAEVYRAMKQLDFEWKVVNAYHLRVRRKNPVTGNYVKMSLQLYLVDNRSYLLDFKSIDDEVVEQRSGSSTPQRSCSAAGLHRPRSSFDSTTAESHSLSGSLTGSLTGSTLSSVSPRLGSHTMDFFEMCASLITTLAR
T2 sequence (Q00532 whole entry): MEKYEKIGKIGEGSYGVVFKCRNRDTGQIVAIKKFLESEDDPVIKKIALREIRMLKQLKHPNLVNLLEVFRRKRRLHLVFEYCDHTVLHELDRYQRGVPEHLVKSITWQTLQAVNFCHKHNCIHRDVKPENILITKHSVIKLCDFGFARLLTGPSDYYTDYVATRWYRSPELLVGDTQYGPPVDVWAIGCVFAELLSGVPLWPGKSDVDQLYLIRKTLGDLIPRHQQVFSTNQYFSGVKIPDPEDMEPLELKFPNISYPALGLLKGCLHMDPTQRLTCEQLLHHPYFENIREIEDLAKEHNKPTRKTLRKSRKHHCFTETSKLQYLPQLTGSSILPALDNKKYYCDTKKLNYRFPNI

What is called inhibition is the relative decrease from the control value, in per cent. `COc1ccc(OC)c(-n2nnc(S(=O)(=O)c3ccc(C(C)(C)C)cc3)c2C)c1` [SPA70]: the “Effect on rifampicin induction of MDR1” value in the series on MDR1 in LS174T cells and in the series on MDR1 in LS180 cells was “able to block rifampicin induction of MDR1” in each case. Also, the inhibition at 10 µM on AMPK-alpha2 is 9%; on CDKL1 it was 9%; at CSNK2A2 it was 10%; at ERBB2 it was 5%; at GSK3B (read-out: %Inhibition by 10 μM SPA70), 0%; on HIPK2, 36%. The inhibition at 10 µM on PCTK2 turned out to be 0%; at PIK3CD it was 0%; on ROS1, 5%; at TGFBR2, 1%. In addition, the “%Inhibition by 10 μM SPA70” value on CSK is 9%; at GSK3B it was “not inhibited”. Moreover, the “Effect on activation of hPXR by SJB7” value on hPXR [1] was “effectively block the activation of hPXR”. In addition, the “Toxicity of SPA70 alone in LS180 cells” value in the series on LS180 cells (parental) was “marginally toxic”. In series [2], the “Effect on paclitaxel sensitivity of LS180 cells with exogenous hPXR” value is “re-sensitized the cells to paclitaxel”. The “Sensitization of SNU-C4 cells to paclitaxel and vincristine” value in the series with SNU-C4 cells was “sensitizing the cells to paclitaxel and vincristine”. The “Effect on basal activity of hPXR” value on hPXR [3] is “very weakly inhibited the basal activity”.

Source of the values: publication PMC5622171 (Nature Communications, 2017).
